Measured values reported in patent EP3233102B1, “USE OF AN ANTIMICROBIAL PEPTIDE TO INDUCE CELL DEATH IN BREAST CANCER” (Bolkent, Sehnaz, priority 2014, dated 2024).
Where a SMILES comes first, the peptide text is derived from it. Bridges are numbered along the chain shown (N, C = ends). Where no end group is shown, it is not given here.

Key:
MCF-7 cells = assay: Lactate dehydrogenase (LDH) release cytotoxicity assay; assay type: cell-based; settings: 24 hours, FIG. 4
Text: (§1) The lactate dehydrogenase (LDH) release assay was used to measure cytotoxicity. Lactate dehydrogenase (LDH) is a stable cytoplasmic enzyme present in most cells. During damage to or rupture of cell cytoplasmic membranes, LDH is released from cells and into the surrounding cell culture supernatant. Quantitation of LDH in cell culture supernatant was used to measure cellular toxicity levels.
Both MCF-7 and control (normal) cells were detached from 75 cm^2 flasks with trypsin-EDTA and centrifuged. Cells were resuspended in cell culture media and diluted to a concentration of 50 cells/ µl 100 µl of cell suspension was transferred to each well of a 96-well plate. Three wells of cells were used for each concentration of cyclic dodecapeptide. The asay was performed in triplicates. […] The media of the experiment groups was replaced with media containing 50, 100, or 200 µg/ml of cyclic dodecapeptide. After the cells were incubated with cyclic dodecapeptide for 24 hours, the activity of released lactate dehydrogenase was detected following manufacture prototol. 5 µl of lysis solution (2% Triton-X-100) was added to each well. The plate was incubated at 37 °C for 15 minutes. 100 µ ? of freshly prepared reaction mixture containing catalyst (Diaphoresis NAD^+mixture) and dye solution (iodotetrazolium chloride (INT) and sodium lactate) was added to each well. After incubation in dark at room temperature for 30 minutes, the reaction was stopped by adding 50 µl of stopping solution (IN HCl) to each well. Plates were shaken in an orbital shaker for 10 seconds. Spectrophotometric absorbance was measured at 490 nm test wavelength and 690 nm reference wavelength. The results were determined as % cytotoxicity. The average absorbance value of the negative control group (no cyclic dodecapeptide added) was subtracted from each of the experiment groups. […] The control and experiment groups were compared relative to the positive control group, and their cytotoxicities were measured by using the formula below: % Cytotoxicity = ([Experiment−NegativeControl])/([PositiveControl−NegativeControl])∗100 [formula]

control (normal) cells = assay: Lactate dehydrogenase (LDH) release cytotoxicity assay, control group; assay type: cell-based
Text: as §1
Both MCF-7 and control (normal) cells were detached from 75 cm^2 flasks with trypsin-EDTA and centrifuged. Cells were resuspended in cell culture media and diluted to a concentration of 50 cells/ µl 100 µl of cell suspension was transferred to each well of a 96-well plate. Three wells of cells were used for each concentration of cyclic dodecapeptide. The asay was performed in triplicates. […] The media of the experiment groups was replaced with media containing 50, 100, or 200 µg/ml of cyclic dodecapeptide. After the cells were incubated with cyclic dodecapeptide for 24 hours, the activity of released lactate dehydrogenase was detected following manufacture prototol. 5 µl of lysis solution (2% Triton-X-100) was added to each well. The plate was incubated at 37 °C for 15 minutes. 100 µ ? of freshly prepared reaction mixture containing catalyst (Diaphoresis NAD^+mixture) and dye solution (iodotetrazolium chloride (INT) and sodium lactate) was added to each well. After incubation in dark at room temperature for 30 minutes, the reaction was stopped by adding 50 µl of stopping solution (IN HCl) to each well. Plates were shaken in an orbital shaker for 10 seconds. Spectrophotometric absorbance was measured at 490 nm test wavelength and 690 nm reference wavelength. The results were determined as % cytotoxicity. The average absorbance value of the negative control group (no cyclic dodecapeptide added) was subtracted from each of the experiment groups. A positive control group for maximum LDH release was used as 100% cytotoxicity. The control and experiment groups were compared relative to the positive control group, and their cytotoxicities were measured by using the formula below: % Cytotoxicity = ([Experiment−NegativeControl])/([PositiveControl−NegativeControl])∗100 [formula]

MDA-MB 231 cells = assay: Lactate dehydrogenase (LDH) release cytotoxicity assay; assay type: cell-based; settings: 24 hours, FIG. 5
emryonic neurons of rats = settings: cited from earlier work
human glioblastoma cells = settings: cited from earlier work

Molecule | release of lactate dehydrogenase, % cytotoxicity, MCF-7 group (MCF-7 cells; 50 µg/ml) [%] | release of lactate dehydrogenase, % cytotoxicity, MCF-7 group (MCF-7 cells; 100 µg/ml) [%] | release of lactate dehydrogenase, % cytotoxicity, MCF-7 group (MCF-7 cells; 200 µg/ml) | release of lactate dehydrogenase, % cytotoxicity, control group (control (normal) cells; 50 µg/ml, FIG. 4 (control group to MCF-7)) [%] | release of lactate dehydrogenase, % cytotoxicity, control group (control (normal) cells; 50 µg/ml, FIG. 5 (control group to MDA-MB 231)) [%] | release of lactate dehydrogenase, % cytotoxicity, control group (control (normal) cells; 100 µg/ml, FIG. 4 (control group to MCF-7)) [%] | release of lactate dehydrogenase, % cytotoxicity, control group (control (normal) cells; 100 µg/ml, FIG. 5 (control group to MDA-MB 231)) [%] | release of lactate dehydrogenase, % cytotoxicity, control group (control (normal) cells; 200 µg/ml, FIG. 4 (control group to MCF-7)) [%] | release of lactate dehydrogenase, % cytotoxicity, control group (control (normal) cells; 200 µg/ml, FIG. 5 (control group to MDA-MB 231)) [%] | release of lactate dehydrogenase, % cytotoxicity, MDA-MB 231 group (MDA-MB 231 cells; 50 µg/ml) [%] | release of lactate dehydrogenase, % cytotoxicity, MDA-MB 231 group (MDA-MB 231 cells; 100 µg/ml) [%] | release of lactate dehydrogenase, % cytotoxicity, MDA-MB 231 group (MDA-MB 231 cells; 200 µg/ml) [%] | cytotoxicity (emryonic neurons of rats) | cytotoxicity (human glioblastoma cells)
CC[C@H](C)[C@@H]1NC(=O)[C@H](CCCNC(=N)N)NC(=O)[C@@H](NC(=O)[C@H](CC(C)C)NC(=O)[C@@H](N)CCCNC(=N)N)CSSC[C@@H](C(=O)N[C@@H](CCCNC(=N)N)C(=O)O)NC(=O)[C@H](C(C)C)NC(=O)[C@H](CCCNC(=N)N)NC(=O)[C@H]([C@@H](C)CC)NC(=O)[C@H](C(C)C)NC(=O)[C@H](C(C)C)NC1=O [cyclic dodecapeptide, RLCRIVVIRVCR] (H-RLCRIVVIRVCR-OH; disulfide 3-11) | 20.11±8.3 | 76.22±4.1 | 61.55+4% | 12.8±1.9 | 3.9±0.9 | 13.36±1.5 | 4.73±1.7 | 12.07±1.4 | 4.8±1.3 | 19.1±1.9 | 17.1±2.2 | 33.93±9 |  | 
bactenecin (RLCRIVVIRVCR; disulfide 3-11; UniProt P22226 144-155, looked up) |  |  |  |  |  |  |  |  |  |  |  |  | strongly cytotoxic | strongly cytotoxic
